For 16 compounds, Ki and IC50 results are on record in US20080175794A1, “Substituted Pyridazinyl- and Pyrimidinyl-Quinolin-4-Ylamine Analogues” (NEUROGEN CORPORATION, priority 2005, published 2008).

A word on the Ki: it is a measure of affinity in units of concentration, obtained from inhibition or displacement. The term IC50 denotes the concentration at which inhibition is half-maximal.

T1 sequence (Q8NER1 whole entry): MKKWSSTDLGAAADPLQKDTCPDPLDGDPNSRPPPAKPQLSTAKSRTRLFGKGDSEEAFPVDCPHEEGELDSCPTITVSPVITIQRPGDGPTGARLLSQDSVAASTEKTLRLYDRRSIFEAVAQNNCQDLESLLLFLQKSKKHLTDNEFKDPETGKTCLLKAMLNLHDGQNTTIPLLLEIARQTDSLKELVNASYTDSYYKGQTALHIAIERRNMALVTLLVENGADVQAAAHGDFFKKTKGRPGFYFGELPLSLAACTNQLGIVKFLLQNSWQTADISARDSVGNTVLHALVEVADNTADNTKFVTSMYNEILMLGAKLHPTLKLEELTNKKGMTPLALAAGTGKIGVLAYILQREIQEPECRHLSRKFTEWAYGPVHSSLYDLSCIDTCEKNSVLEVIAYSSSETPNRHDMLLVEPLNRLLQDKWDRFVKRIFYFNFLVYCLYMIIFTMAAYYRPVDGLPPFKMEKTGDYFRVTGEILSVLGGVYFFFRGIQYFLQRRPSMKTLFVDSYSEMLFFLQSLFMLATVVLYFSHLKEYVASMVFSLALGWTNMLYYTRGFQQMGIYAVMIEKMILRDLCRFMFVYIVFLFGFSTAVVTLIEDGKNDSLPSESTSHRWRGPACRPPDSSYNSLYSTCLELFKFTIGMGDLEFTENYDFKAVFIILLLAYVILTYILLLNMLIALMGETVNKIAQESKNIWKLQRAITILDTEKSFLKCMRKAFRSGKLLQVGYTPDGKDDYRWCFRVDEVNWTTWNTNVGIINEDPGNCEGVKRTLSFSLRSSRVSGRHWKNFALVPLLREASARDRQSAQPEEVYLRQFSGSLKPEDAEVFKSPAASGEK
VR, sequence (Q8NER1 whole entry): as above

One experiment addresses VR (Homo sapiens, UniProt Q8NER1).
Assay: not given
The settings on record: typical value, non-selective cation channel blocker binding to VR; cited from earlier work.
In the case of `Cl.Cl.Cl.Cl.Cl.Cl.N.N.N.N.N.N.N.N.N.N.N.N.N.N.[O-2].[O-2].[Ru+3].[Ru+3].[Ru+4]` [ruthenium red], the Ki is no less than 140 µM.

Another experiment concerns the target T1, human capsaicin receptor (Homo sapiens, UniProt Q8NER1).
T1 construct: expressed in transfected cells
In words: Calcium mobilization assay, determination of antagonist activity (Example 6). Type of experiment: cell-based. As to conditions: Table III; assay provided in Example 6; cells expressing human capsaicin receptor, capsaicin at EC50. A digest of the protocol: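 Stable HEK293 clones expressing full-length human capsaicin receptor, loaded with Fluo-3 AM in KRH buffer pH 7.4 (1–2 h, 37 °C). Test compound (1–5 μM final) preincubated 0.5–6 h at room temperature in the dark, then capsaicin added at its EC50. FLIPR/Fluoroskan calcium signal; IC50 as concentration halving the capsaicin response.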
(In general: Calcium flux is commonly read through the fluorescence of an indicator in the cells.)
On to `CCCN(C)c1cc(C(F)(F)F)c(-c2cnc3c(Nc4ccc(C(F)(F)F)cn4)ccnc3n2)nn1` [Compound 121, 3-{6-[methyl(propyl)amino]-4-(trifluoromethyl)pyridazin-3-yl}-N-[5-(trifluoromethyl)pyridin-2-yl]pyrido[2,3-b]pyrazin-8-amine], for which the concentration for half-maximal inhibition (IC50) was less than 1 µM.

As for `CC(C)(C)Nc1cc(C(F)(F)F)c(-c2cnc3c(Nc4ccc(C(F)(F)F)cn4)ccnc3n2)nn1` [Compound 161, 3-[6-(tert-butylamino)-4-(trifluoromethyl)pyridazin-3-yl]-N-[5-(trifluoromethyl)pyridin-2-yl]pyrido[2,3-b]pyrazin-8-amine], the IC50 was less than 1 µM.

`OCCCNc1cc(C(F)(F)F)c(-c2cnc3c(Nc4ccc(C(F)(F)F)cn4)ccnc3n2)nn1` [Compound 169, 3-{[5-(trifluoromethyl)-6-(8-{[5-(trifluoromethyl)pyridin-2-yl]amino}pyrido[2,3-b]pyrazin-3-yl)pyridazin-3-yl]amino}propan-1-ol]: the IC50 is less than 1 µM.

Consider `OC1CCCN(c2cc(C(F)(F)F)c(-c3cnc4c(Nc5ccc(C(F)(F)F)cn5)ccnc4n3)nn2)C1` (stereo not shown) [Compound 195, 1-[5-(trifluoromethyl)-6-(8-{[5-(trifluoromethyl)pyridin-2-yl]amino}pyrido[2,3-b]pyrazin-3-yl)pyridazin-3-yl]piperidin-3-ol], for which the IC50 is less than 1 µM.

For `CCN(c1cc(C(F)(F)F)c(-c2cnc3c(Nc4ccc(C(F)(F)F)cn4)ccnc3n2)nn1)C(C)C` [Compound 128, 3-{6-[ethyl(isopropyl)amino]-4-(trifluoromethyl)pyridazin-3-yl}-N-[5-(trifluoromethyl)pyridin-2-yl]pyrido[2,3-b]pyrazin-8-amine], the IC50 is less than 1 µM.

For the compound `FC(F)(F)c1ccc(Nc2ccnc3nc(-c4nnc(NCCCN5CCCC5)cc4C(F)(F)F)cnc23)nc1` [Compound 77, 3-{6-[(3-pyrrolidin-1-ylpropyl)amino]-4-(trifluoromethyl)pyridazin-3-yl}-N-[5-(trifluoromethyl)pyridin-2-yl]pyrido[2,3-b]pyrazin-8-amine], the IC50 is less than 1 µM.

For `CC(C)N(CCO)c1cc(C(F)(F)F)c(-c2cnc3c(Nc4ccc(C(F)(F)F)cn4)ccnc3n2)nn1` [Compound 197, 2-{isopropyl[5-(trifluoromethyl)-6-(8-{[5-(trifluoromethyl)pyridin-2-yl]amino}pyrido[2,3-b]pyrazin-3-yl)pyridazin-3-yl]amino}ethanol], the IC50 is less than 1 µM.

On to `CCN(CC)CCN(CC)c1cc(C(F)(F)F)c(-c2cnc3c(Nc4ccc(C(F)(F)F)cn4)ccnc3n2)nn1` [Compound 99, N,N,N′-triethyl-N′-[5-(trifluoromethyl)-6-(8-{[5-(trifluoromethyl)pyridin-2-yl]amino}pyrido[2,3-b]pyrazin-3-yl)pyridazin-3-yl]ethane-1,2-diamine], for which the IC50 was less than 1 µM.

As for `CCC(CO)Nc1cc(C(F)(F)F)c(-c2cnc3c(Nc4ccc(C(F)(F)F)cn4)ccnc3n2)nn1` (stereo not shown) [Compound 118, 2-{[5-(trifluoromethyl)-6-(8-{[5-(trifluoromethyl)pyridin-2-yl]amino}pyrido[2,3-b]pyrazin-3-yl)pyridazin-3-yl]amino}butan-1-ol], the IC50 was less than 1 µM.

For the compound `NC(=O)c1cc(C(F)(F)F)c(-c2cnc3c(Nc4ccc(C(F)(F)F)cn4)ccnc3n2)nn1` [Compound 60, 5-(trifluoromethyl)-6-(8-{[5-(trifluoromethyl)pyridin-2-yl]amino}pyrido[2,3-b]pyrazin-3-yl)pyridazine-3-carboxamide], the IC50 was less than 1 µM.

As to `CNc1cc(C(F)(F)F)c(-c2cnc3c(Nc4ccc(C(F)(F)F)cn4)ccnc3n2)nn1` [Compound 100, 3-[6-(methylamino)-4-(trifluoromethyl)pyridazin-3-yl]-N-[5-(trifluoromethyl)pyridin-2-yl]pyrido[2,3-b]pyrazin-8-amine], the IC50 is less than 1 µM.

For `CCC(O)CNc1cc(C(F)(F)F)c(-c2cnc3c(Nc4ccc(C(F)(F)F)cn4)ccnc3n2)nn1` (stereo not shown) [Compound 173, 1-{[5-(trifluoromethyl)-6-(8{[5-(trifluoromethyl)pyridin-2-yl]amino}pyrido[2,3-b]pyrazin-3-yl)pyridazin-3-yl]amino}butan-2-ol], the IC50 is less than 1 µM.

`FC(F)(F)c1ccc(Nc2ccnc3nc(-c4nnc(NCc5ccccn5)cc4C(F)(F)F)cnc23)nc1` [Compound 80, 3-{6-[(pyridin-2-ylmethyl)amino]-4-(trifluoromethyl)pyridazin-3-yl}-N-[5-(trifluoromethyl)pyridin-2-yl]pyrido[2,3-b]pyrazin-8-amine]: the 50% inhibitory concentration (IC50) is less than 1 µM.

As for `CCOc1cc(C(F)(F)F)c(-c2cnc3c(Nc4ccc(C(F)(F)F)cn4)ccnc3n2)nn1` [Compound 50, 3-[6-ethoxy-4-(trifluoromethyl)pyridazin-3-yl]-N-[5-(trifluoromethyl)pyridin-2-yl]pyrido[2,3-b]pyrazin-8-amine], the IC50 is less than 1 µM.

With `CCN(CC)CCNc1cc(C(F)(F)F)c(-c2cnc3c(Nc4ccc(C(F)(F)F)cn4)ccnc3n2)nn1` [Compound 70, N,N-diethyl-N′-[5-(trifluoromethyl)-6-(8-{[5-(trifluoromethyl)pyridin-2-yl]amino}pyrido[2,3-b]pyrazin-3-yl)pyridazin-3-yl]ethane-1,2-diamine], the IC50 is less than 1 µM.
